Laboratory results published in US11000033B2, “Ketone or oxime compound, and herbicide” (NISSAN CHEMICAL CORPORATION, priority 2014, dated 2021).

How the values were obtained:
Format in all cases: in vivo
[1] = system: directly sowed rice plant; assay: Test Example 3: effect on crop by foliage application, Wagner pot (symbol b); details: application herbicide amount 320 g/ha
Method in brief: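 Alluvial soil in a 1/10000-are Wagner pot was flooded to a water depth of 0.1–0.5 cm. Echinochloa crus-galli var. crus-galli, Leptochloa chinensis, Cyperus difformis and rice were sown into it and grown in a greenhouse at 25–30 °C.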

Stellaria media [2] = assay: Test Example 4: herbicidal effect by soil treatment (symbol P); details: application herbicide amount 320 g/ha
Method in brief: (§1)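 Seeds were sown in sterilized diluvial soil, covered with about 1.5 cm of soil, and the soil surface was sprayed with a water-diluted emulsion of the compound at a predetermined rate. Plants grew in a greenhouse at 25° C. to 30° C.; effects were scored visually 3 weeks after application.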

Chenopodium album = assay: Test Example 4: herbicidal effect by soil treatment (symbol O); details: application herbicide amount 320 g/ha
Method in brief: as §1

Veronica persica = assay: Test Example 4: herbicidal effect by soil treatment (symbol R); details: application herbicide amount 320 g/ha
Method in brief: as §1

Apera spica-venti [3] = assay: Test Example 5: herbicidal effect by foliage application, plastic box (symbol L); details: 320 g/ha, 3 weeks after application
Method in brief: (§2)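 Greenhouse foliar test: seedlings at 14 days, grown 25° C. to 30° C. in sterilized diluvial soil; compound applied as an aqueous dilution of an emulsion; response read 3 weeks after spraying.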

Amaranthus retroflexus = assay: Test Example 4: herbicidal effect by soil treatment (symbol N); details: application herbicide amount 320 g/ha
Method in brief: as §1

Galium spurium = assay: Test Example 4: herbicidal effect by soil treatment (symbol Q); details: application herbicide amount 320 g/ha
Method in brief: as §1

Lolium multiflorum Lam. = assay: Test Example 4: herbicidal effect by soil treatment (symbol K); details: application herbicide amount 320 g/ha
Method in brief: as §1

Apera spica-venti [4] = assay: Test Example 4: herbicidal effect by soil treatment (symbol L); details: application herbicide amount 320 g/ha
Method in brief: as §1

rice plant = assay: Test Example 5: effect on crop by foliage application, plastic box (symbol b); details: 320 g/ha, 3 weeks after application
Method in brief: (§3)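 Seeds were sown in spots in sterilized diluvial soil held in a plastic box 21 cm × 13 cm × 7 cm deep, covered with about 1.5 cm of soil, and grown in a greenhouse at 25° C. to 30° C.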

Setaria viridis [5] = assay: Test Example 4: herbicidal effect by soil treatment (symbol G); details: application herbicide amount 320 g/ha
Method in brief: as §1

Abutilon theophrasti [6] = assay: Test Example 5: herbicidal effect by foliage application, plastic box (symbol M); details: 320 g/ha, 3 weeks after application
Method in brief: as §2

Abutilon theophrasti [7] = assay: Test Example 4: herbicidal effect by soil treatment (symbol M); details: application herbicide amount 320 g/ha
Method in brief: as §1

Stellaria media [8] = assay: Test Example 5: herbicidal effect by foliage application, plastic box (symbol P); details: 320 g/ha, 3 weeks after application
Method in brief: as §2

Avena fatua = assay: Test Example 5: herbicidal effect by foliage application, plastic box (symbol I); details: 320 g/ha, 3 weeks after application
Method in brief: as §2

[9] = system: Echinochloa crus-galli var. crus-galli; assay: Test Example 3: herbicidal effect by foliage application, Wagner pot (symbol H); details: application herbicide amount 320 g/ha
Method in brief: (§4)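 Weeds and rice were sown in alluvial soil under 0.1–0.5 cm of standing water and grown for 14 days in a 25–30 °C greenhouse. An emulsion of the compound, diluted in water to a set dose, was sprayed evenly onto the foliage. Effect was scored against fixed criteria 3 weeks after treatment.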

beet = assay: Test Example 5: effect on crop by foliage application, plastic box (symbol f); details: 320 g/ha, 3 weeks after application
Method in brief: as §3

Digitaria ciliaris = assay: Test Example 4: herbicidal effect by soil treatment (symbol F); details: application herbicide amount 320 g/ha
Method in brief: as §1

transplanted rice plant = assay: Test Example 1: effect on crop, application before weed generation in submerged conditions (symbol a); details: application herbicide amount 320 g/ha
Method in brief: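 Rice at 2.5 leaf stage transplanted into submerged soil (4 cm depth) sown with three weed species; herbicide applied before weed emergence.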

rapeseed = assay: Test Example 5: effect on crop by foliage application, plastic box (symbol g); details: 320 g/ha, 3 weeks after application
Method in brief: as §3

[10] = system: Echinochloa crus-galli var. crus-galli; assay: Test Example 5: herbicidal effect by foliage application, plastic box (symbol H); details: 320 g/ha, 3 weeks after application
Method in brief: as §2

Setaria viridis [11] = assay: Test Example 5: herbicidal effect by foliage application, plastic box (symbol G); details: 320 g/ha, 3 weeks after application
Method in brief: as §2

Leptochloa chinensis = assay: Test Example 3: herbicidal effect by foliage application, Wagner pot (symbol D); details: application herbicide amount 320 g/ha
Method in brief: as §4

SMILES | effect on crop b (directly sowed rice plant), grade 0-5 [1] | Herbicidal effect grade, P: Stellaria media (Stellaria media [2]) | Herbicidal effect grade, O: Chenopodium album (Chenopodium album) | Herbicidal effect grade, R: Veronica persica (Veronica persica) | L: Apera spica-venti, herbicidal effect (criteria of Test Example 1) (Apera spica-venti [3]) | Herbicidal effect grade, N: Amaranthus retroflexus (Amaranthus retroflexus) | Herbicidal effect grade, Q: Galium spurium (Galium spurium) | Herbicidal effect grade, K: Lolium multiflorum Lam. (Lolium multiflorum Lam.) | Herbicidal effect grade, L: Apera spica-venti (Apera spica-venti [4]) | b: directly sowed rice plant, effect on crop (criteria of Test Example 1) (rice plant) | Herbicidal effect grade, G: Setaria viridis (Setaria viridis [5]) | M: Abutilon theophrasti, herbicidal effect (criteria of Test Example 1) (Abutilon theophrasti [6]) | Herbicidal effect grade, M: Abutilon theophrasti (Abutilon theophrasti [7]) | P: Stellaria media, herbicidal effect (criteria of Test Example 1) (Stellaria media [8]) | I: Avena fatua, herbicidal effect (criteria of Test Example 1) (Avena fatua) | herbicidal effect on H (Echinochloa crus-galli var. crus-galli), grade 0-5 [9] | f: beet, effect on crop (criteria of Test Example 1) (beet) | Herbicidal effect grade, F: Digitaria ciliaris (Digitaria ciliaris) | Effect grade on crop, a: transplanted rice plant (transplanted rice plant) | g: rapeseed, effect on crop (criteria of Test Example 1) (rapeseed) | also measured
CC(=O)CC1CC(O)=C(c2c(C)cc(-c3ccc(C(F)(F)F)cc3)cc2C)C1=O (stereo not drawn) [7-005] | 5 (Herbicidal ratio of 90% or more (almost completely withered)) | 0 (Herbicidal ratio of 5% or lower (almost no effect)) | 0 (Herbicidal ratio of 5% or lower (almost no effect)) | 0 (Herbicidal ratio of 5% or lower (almost no effect)) | 4 (Herbicidal ratio of 70% or higher and lower than 90%) | 0 (Herbicidal ratio of 5% or lower (almost no effect)) | 0 (Herbicidal ratio of 5% or lower (almost no effect)) | 2 (Herbicidal ratio of 20% or higher and lower than 40%) | 0 (Herbicidal ratio of 5% or lower (almost no effect)) | 4 (Herbicidal ratio of 70% or higher and lower than 90%) | 0 (Herbicidal ratio of 5% or lower (almost no effect)) | 0 (Herbicidal ratio of 5% or lower (almost no effect)) | 0 (Herbicidal ratio of 5% or lower (almost no effect)) | 1 (Herbicidal ratio of 5% or higher and lower than 20%) | 2 (Herbicidal ratio of 20% or higher and lower than 40%) | 5 (Herbicidal ratio of 90% or more (almost completely withered)) | 0 (Herbicidal ratio of 5% or lower (almost no effect)) | 5 (Herbicidal ratio of 90% or more (almost completely withered)) | 1 (Herbicidal ratio of 5% or higher and lower than 20%) | 0 (Herbicidal ratio of 5% or lower (almost no effect)) | H: Echinochloa crus-galli var. crus-galli, herbicidal effect (criteria of Test Example 1) [10]: 5 (Herbicidal ratio of 90% or more (almost completely withered)); G: Setaria viridis, herbicidal effect (criteria of Test Example 1) (Setaria viridis [11]): 4 (Herbicidal ratio of 70% or higher and lower than 90%); herbicidal effect on D (Leptochloa chinensis), grade 0-5 (Leptochloa chinensis): 5 (Herbicidal ratio of 90% or more (almost completely withered))
CC(=O)CC1CC(O)=C(c2c(C)cc(-c3ccc(C)cc3)cc2C)C1=O (stereo not drawn) [7-007] | 5 (Herbicidal ratio of 90% or more (almost completely withered)) | 0 (Herbicidal ratio of 5% or lower (almost no effect)) | 0 (Herbicidal ratio of 5% or lower (almost no effect)) | 0 (Herbicidal ratio of 5% or lower (almost no effect)) | 5 (Herbicidal ratio of 90% or more (almost completely withered)) | 0 (Herbicidal ratio of 5% or lower (almost no effect)) | 0 (Herbicidal ratio of 5% or lower (almost no effect)) | 5 (Herbicidal ratio of 90% or more (almost completely withered)) | 5 (Herbicidal ratio of 90% or more (almost completely withered)) | 5 (Herbicidal ratio of 90% or more (almost completely withered)) | 4 (Herbicidal ratio of 70% or higher and lower than 90%) | 0 (Herbicidal ratio of 5% or lower (almost no effect)) | 0 (Herbicidal ratio of 5% or lower (almost no effect)) | 0 (Herbicidal ratio of 5% or lower (almost no effect)) | 4 (Herbicidal ratio of 70% or higher and lower than 90%) | 5 (Herbicidal ratio of 90% or more (almost completely withered)) | 0 (Herbicidal ratio of 5% or lower (almost no effect)) | 4 (Herbicidal ratio of 70% or higher and lower than 90%) | 5 (Herbicidal ratio of 90% or more (almost completely withered)) | 0 (Herbicidal ratio of 5% or lower (almost no effect)) | H: Echinochloa crus-galli var. crus-galli, herbicidal effect (criteria of Test Example 1) [10]: 5 (Herbicidal ratio of 90% or more (almost completely withered)); G: Setaria viridis, herbicidal effect (criteria of Test Example 1) (Setaria viridis [11]): 5 (Herbicidal ratio of 90% or more (almost completely withered)); herbicidal effect on D (Leptochloa chinensis), grade 0-5 (Leptochloa chinensis): 5 (Herbicidal ratio of 90% or more (almost completely withered))
CC(=O)CC1CC(O)=C(c2c(C)cc(-c3ccccn3)cc2C)C1=O (stereo not drawn) [7-012] | 5 (Herbicidal ratio of 90% or more (almost completely withered)) | 0 (Herbicidal ratio of 5% or lower (almost no effect)) | 0 (Herbicidal ratio of 5% or lower (almost no effect)) | 0 (Herbicidal ratio of 5% or lower (almost no effect)) | 0 (Herbicidal ratio of 5% or lower (almost no effect)) | 0 (Herbicidal ratio of 5% or lower (almost no effect)) | 0 (Herbicidal ratio of 5% or lower (almost no effect)) | 2 (Herbicidal ratio of 20% or higher and lower than 40%) | 0 (Herbicidal ratio of 5% or lower (almost no effect)) | 5 (Herbicidal ratio of 90% or more (almost completely withered)) | 5 (Herbicidal ratio of 90% or more (almost completely withered)) | 0 (Herbicidal ratio of 5% or lower (almost no effect)) | 0 (Herbicidal ratio of 5% or lower (almost no effect)) | 3 (Herbicidal ratio of 40% or higher and lower than 70%) | 1 (Herbicidal ratio of 5% or higher and lower than 20%) | 5 (Herbicidal ratio of 90% or more (almost completely withered)) | 0 (Herbicidal ratio of 5% or lower (almost no effect)) | 5 (Herbicidal ratio of 90% or more (almost completely withered)) | 1 (Herbicidal ratio of 5% or higher and lower than 20%) | 3 (Herbicidal ratio of 40% or higher and lower than 70%) | H: Echinochloa crus-galli var. crus-galli, herbicidal effect (criteria of Test Example 1) [10]: 5 (Herbicidal ratio of 90% or more (almost completely withered)); G: Setaria viridis, herbicidal effect (criteria of Test Example 1) (Setaria viridis [11]): 5 (Herbicidal ratio of 90% or more (almost completely withered)); herbicidal effect on D (Leptochloa chinensis), grade 0-5 (Leptochloa chinensis): 5 (Herbicidal ratio of 90% or more (almost completely withered))
